{"source": "patent US20050261478A1", "about": "“Compositions and methods for regulating lymphocyte activation” (XCYTE Therapies, Inc., priority 1998, published 2005)", "molecules": {"B1": {"name": "CD3γ-Ig: CD3γ extracellular domain fused to human IgG1 hinge-CH2-CH3 (protein)", "chain": "QSIKGNHLVKVYDYQEDGSVLLTCDAEAKNITWFKDGKMIGFLTEDKKKWNLGSNAKDPRGMYQCKGSQNKSKPLQVYYRMCQNCIELNAATIS", "modifications": "left off: a dimerising Fc or GST", "notes": "CD3γ extracellular domain fused to human IgG1 hinge-CH2-CH3"}}, "key": {"CD3ε δIg": {"molecular_target": "T1, CD3ε δIg (Homo sapiens, UniProt P04234+P07766)", "T1 construct": "made in house; host or cells: COS-7 (transient, DEAE-dextran); purified on protein A-Sepharose", "T1 sequence (P07766 23-126)": "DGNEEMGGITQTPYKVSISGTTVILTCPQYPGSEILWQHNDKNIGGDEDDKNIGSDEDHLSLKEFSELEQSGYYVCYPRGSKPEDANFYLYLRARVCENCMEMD", "T1 sequence (P04234 22-100)": "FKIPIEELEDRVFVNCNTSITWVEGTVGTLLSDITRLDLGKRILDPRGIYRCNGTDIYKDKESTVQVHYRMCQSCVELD", "assay": "BIACORE binding of CDR3 peptides", "conditions": "peptides cyclized and characterized as pools of 3-5, CD3ε δhuIg impure mixture, nd = non detectable binding, read-out: Binding Affinity, CD3ε δIg", "description": "(§1) Peptides corresponding to the entire CDR3 regions of anti-CD3 and […] mAbs were synthesized, and Tyr/Phe-Cysteine residues were added to both amino and carboxyl termini. Modifications of peptides were made by eliminating one amino acid of the CDR3 region at a time from the terminus. Peptide synthesis was carried out on solid phase by using Fmoc chemistry (HBTU/DIEA activation and TFA cleavage). Crude peptides were combined in a batch of 3-5 peptides and cyclized by air oxidation at pH 8.5. Crude cyclic peptides were purified on a reverse phase HPLC, lyophilized and characterized by analytical HPLC and mass spectroscopy.\n(§2) BIACORE uses surface plasmon resonance (SPR) which occurs when surface plasmon waves are excited at a metal/liquid interface. Light is directed at, and reflected due to bimolecular interactions between analyte (in solution) and ligand (immobilized). CD3εδhuIg, CD3εεhuIg and CD28huIg were covalently immobilized on a carboxymethy dextran chip using EDC/NHS chemistry followed by blocking with ethanol amine. Peptides were dissolved in HBS buffer at pH 7.2 with or without 1% DMSO, and were allowed to pass over these fusion protein-immobilized surfaces. Non-specific binding was substrated by passing these peptides over a controlled surface prepared by immobilizing EDC/NHS alone followed by ethanolamine."}, "G19-4 anti-CD3 mAb": {"system": "G19-4 anti-CD3 mAb", "assay": "ELISA of CD3-Ig fusion proteins captured by immobilized anti-CD3 mAb", "format": "binding", "conditions": "up to 100 μg/ml fusion protein", "from_the_text": "Transient expression in COS-7 cells was used to generate different CD3-Ig fusion proteins. The plasmids phCD3ε-Ig, and phCD3γ-Ig were transfected individually or in combinations of phCD3ε-Ig+phCD3δ-Ig and phCD3ε-Ig+phCD3γ-Ig into COS-7 by the DEAE-dextran method. Transfected cells were maintained in medium supplemented with a low concentration, 0.5%, FBS and insulin. Spent media were collected in three-day intervals up to three weeks post transfection. Fusion proteins were then purified from spent media by protein A-Sepharose chromatography. Fusion protein expression was confirmed by SDS-PAGE and ELISA using anti-CD3 mAb.\nCD3-Ig fusion proteins were characterized by ELISA using a number of anti-CD3 mAbs including G19-4, OKT3, BC3, and 64.1 Anti-CD3 mAbs were immobilized to capture CD3-Ig. An antibody-horseradish peroxidase conjugate specific against human IgG […] was used to detect the binding of CD3-Ig to anti-CD3 mAbs. Like the control CD4-Ig, no binding of CD3δ-Ig to G19-4 was detectable even at 100 μg/ml of the fusion protein (FIG. 20). […] and […] saturated at 4 μg/ml and 20 μg/ml in this assay, respectively. […] In addition, binding affinities of the CD3-Ig fusion proteins to different anti-CD3 antibodies were measured by BIACORE, and the results are shown in Table IV. […]"}, "CD4^+ T cells": {"system": "CD4^+ T cells", "assay": "Proliferation of purified T cell subsets with immobilized antibodies", "format": "cell-based, human", "conditions": "antibodies immobilized on microtiter plates, 4 days", "description": "(§3) T cells were isolated from peripheral blood by centrifugation on “FICOLL”, followed by separation into CD4^+ or CD8^+ subsets by depletion of monocytes, B cells, NK cells, and either CD4 or CD8 cells. Cell depletion was performed using mAbs to CD14, CD20, CD11b, and CD8 or CD4 followed by removal of antibody-bound cells using magnetic beads coated with anti-mouse IgG CD4^+ or CD8^+ T cells were >95% pure after the depletion step when analyzed by flow cytometry. Cells were cultured in antibody-coated microtiter plates at 5×10^4 for 4 days, and proliferation was measured by incorporation of ^3H-thymidine for the final 12 hours of culture. Microtiter plates contained immobilized antibodies as indicated, including the control, nonbinding L20 antibody in some wells to equalize the total protein concentration for immobilization. Antibodies were immobilized by incubation at 10 μg/ml each for 18 hr at 37° C., followed by removal of unbound protein by extensive washing."}, "CD8^+ T cells": {"system": "CD8^+ T cells", "assay": "Proliferation of purified T cell subsets with immobilized antibodies", "format": "cell-based, human", "conditions": "antibodies immobilized on microtiter plates, 4 days", "description": "as §3"}, "CD28Ig": {"molecular_target": "T2, CD28Ig (Homo sapiens, UniProt P10747)", "T2 construct": "human Ig (huIg) fusion partner", "T2 sequence (P10747 19-152 limits assumed)": "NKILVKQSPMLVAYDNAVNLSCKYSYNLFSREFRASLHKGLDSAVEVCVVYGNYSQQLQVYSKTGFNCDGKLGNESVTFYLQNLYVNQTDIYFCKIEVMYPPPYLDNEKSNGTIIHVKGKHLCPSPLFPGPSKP", "assay": "BIACORE binding of CDR3 peptides", "conditions": "peptides cyclized and characterized as pools of 3-5, nd = non detectable binding, read-out: Binding Affinity, CD28Ig", "description": "as §1, §2"}}, "note": "Bridge positions count the residues as written; N and C are the ends. Peptide text beside a SMILES is read from it."}
{"molecule": "NCCCC[C@@H]1NC(=O)[C@H](Cc2c[nH]c3ccccc23)NC(=O)[C@H](CC(=O)O)NC(=O)[C@H](Cc2ccccc2)NC(=O)[C@@H](NC(=O)[C@@H](N)Cc2ccc(O)cc2)CSSC[C@@H](C(=O)N[C@@H](Cc2ccc(O)cc2)C(=O)O)NC(=O)[C@H](CC(N)=O)NC1=O", "note": "[YCFDWKNCY (SEQ ID NO:80)] (H-YCFDWKNCY-OH; disulfide 2-8; N-terminus and C-terminus assumed)", "values": [{"measurement": "Kd", "setting": "CD3ε δIg", "value": 0.5, "unit": "µM"}]}
{"molecule": "N[C@@H](Cc1ccc(O)cc1)C(=O)N[C@H]1CSSC[C@@H](C(=O)N[C@@H](Cc2ccc(O)cc2)C(=O)O)NC(=O)CNC(=O)[C@H](CC(=O)O)NC(=O)[C@H](Cc2ccc(O)cc2)NC(=O)[C@H](CC(=O)O)NC(=O)[C@H](Cc2ccc(O)cc2)NC1=O", "note": "[YCYDYDGCY (SEQ ID NO:75)] (H-YCYDYDGCY-OH; disulfide 2-8; N-terminus and C-terminus assumed)", "values": [{"measurement": "Kd", "setting": "CD3ε δIg", "value": 10, "unit": "µM"}]}
{"molecule": "CD3ε-Ig: CD3ε extracellular domain fused to human IgG1 hinge-CH2-CH3", "values": [{"measurement": "Binding of CD3-Ig fusion protein to G19-4", "setting": "G19-4 anti-CD3 mAb", "value": "detectable"}]}
{"molecule": "OKT-3: MAb anti-CD3, obtained from ATCC (ATCC CRL-8001)", "values": [{"measurement": "Proliferation of CD4^+ T cells", "setting": "CD4^+ T cells", "value": "minimal"}, {"measurement": "Proliferation of CD8^+ T cells", "setting": "CD8^+ T cells", "value": "minimal"}]}
{"molecule": "YCARDSDWYFDVCW [cyclized peptide derived from CDR3 region of an anti-CD3 or anti-CD28 mAb]", "values": [{"measurement": "Kd", "setting": "CD3ε δIg", "value": 50, "unit": "µM"}]}
{"molecule": "YCGYSYYYSMDYCW [cyclized peptide derived from CDR3 region of an anti-CD3 or anti-CD28 mAb]", "values": [{"measurement": "Kd", "setting": "CD28Ig", "value": 1, "unit": "µM"}]}
{"molecule": "YCRSAYYDYDGIAYCW [cyclized peptide derived from CDR3 region of an anti-CD3 or anti-CD28 mAb]", "values": [{"measurement": "Kd", "setting": "CD3ε δIg", "value": 7, "unit": "µM"}, {"measurement": "Kd", "setting": "CD28Ig", "value": 166, "unit": "µM"}]}
{"molecule": "B1", "values": [{"measurement": "Binding of CD3-Ig fusion protein to G19-4", "setting": "G19-4 anti-CD3 mAb", "value": "detectable"}]}
